52 compounds from US8999957B2, “Heterocyclic compounds as ERK inhibitors” (Merck Sharp & Dohme Corp., priority 2010, dated 2015) can be followed below.

For orientation: IC50 means the concentration at which inhibition is half-maximal.

Structures are written as SMILES.

Sequence of fully phosphorylated, active Mouse ERK2 protein (P63085 whole entry): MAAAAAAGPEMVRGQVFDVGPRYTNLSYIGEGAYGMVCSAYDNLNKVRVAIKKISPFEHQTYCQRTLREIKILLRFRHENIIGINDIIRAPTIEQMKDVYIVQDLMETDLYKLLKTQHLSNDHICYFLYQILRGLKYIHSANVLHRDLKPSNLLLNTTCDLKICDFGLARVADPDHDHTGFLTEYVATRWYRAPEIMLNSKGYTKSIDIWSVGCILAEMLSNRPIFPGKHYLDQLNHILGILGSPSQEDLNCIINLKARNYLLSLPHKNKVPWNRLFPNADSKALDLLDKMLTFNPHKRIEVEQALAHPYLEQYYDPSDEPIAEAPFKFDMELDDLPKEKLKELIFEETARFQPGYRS

The assay concerns the target fully phosphorylated, active Mouse ERK2 protein (Mus musculus (Mouse), UniProt P63085). The assay is described as follows: Active ERK2 (aERK) IMAP assay, condition 1. As to conditions: aERK assay condition 1, 30 μM ATP. Format: biochemical. The procedure:
Active ERK2 (aERK) Assay: (Unless Indicated Otherwise, the Data Provided for aERK was obtained using Condition 1)
Activated ERK2 activity was also determined in the IMAP assay format using the procedure outlined above. […] Reactions proceeded for 30 minutes before termination by addition of 60 μl IMAP detection beads in binding buffer. Plates were read as above after 30 minute binding equilibration.
`CN1C[C@H](Cc2c(F)cccc2F)C[C@@H](NC(=O)c2ccc3[nH]nc(-c4ccc5nonc5c4)c3c2)C1` showed an IC50 of 1000 nM.

In turn, `COc1ccccc1CCN1CCCCC(NC(=O)c2ccc3[nH]nc(-c4ccncc4)c3c2)C1` (stereo not shown) displayed an IC50 of 31.1 nM.

Take `COc1cccc(F)c1CN1CCCCC(NC(=O)c2ccc3[nH]nc(-c4ccncc4)c3c2)C1` (stereo not shown): the IC50 is 231 nM.

As to `O=C(N[C@@H]1CCCN(c2ccccc2F)C1)c1ccc2[nH]nc(-c3ccncc3)c2c1`, the IC50 turned out to be 62.3 nM.

In turn, `Cc1cc(-c2n[nH]c3ccc(C(=O)NC4CC[C@H]5CC[C@@H]4N5Cc4ccccc4F)cc23)ccn1` (stereo partly shown) had an IC50 of 9.1 nM.

In the case of `[2H]C([2H])([2H])N1CC[C@@H](c2ccccc2)[C@H](NC(=O)c2ccc3[nH]nc(-c4ccc(OC(C)C)cc4)c3c2)C1`, the IC50 worked out at 300 nM.

Compound `CN1CC(Cc2c(F)cccc2F)CC(NC(=O)c2ccc3[nH]nc(-c4ccc5nsnc5c4)c3c2)C1` (stereo not shown) yielded an IC50 of 3.23 nM.

For the compound `COc1cccc(F)c1CN1CCC[C@@H](NC(=O)c2ccc3[nH]nc(-c4ccc5nc(C(F)(F)F)nn5c4)c3c2)C1`, half-maximal inhibition (IC50) required 822 nM.

As for `O=C(N[C@H]1CN(Cc2c(F)cccc2F)CC(F)(F)C1)c1ccc2[nH]nc(-c3ccc4nccn4c3)c2c1`, the IC50 was found to be 234 nM.

Compound `O=C(NC1CN(C(=O)OCc2ccccc2)CC(F)(F)C1)c1ccc2[nH]nc(-c3ccncc3)c2c1` (stereo not shown) had an IC50 of 105 nM.

As for `Cn1cc(-c2n[nH]c3ccc(C(=O)N[C@@H]4CCCN(Cc5ccccc5F)C4)cc23)ccc1=O`, the midpoint of inhibition, the IC50, lay at 21.1 nM.

Turning to `COc1cccc(F)c1CN1C[C@@H](C)C[C@@H](NC(=O)c2ccc3[nH]nc(-c4nc5ccccc5s4)c3c2)C1`, inhibition was half-maximal at 61.3 nM (IC50).

As for `COc1cccc(F)c1CN1C[C@@H](C)C[C@@H](NC(=O)c2ccc3[nH]nc(-c4ccc5nonc5c4)c3c2)C1`, half-maximal inhibition (IC50) required 128 nM.

For `O=C(N[C@@H]1CCCNC1)c1ccc2[nH]nc(-c3ccncc3)c2c1`, the IC50 amounted to 835 nM.

For `O=C(NC1COCCN(CCc2cccc(F)c2)C1)c1ccc2[nH]nc(-c3ccncc3)c2c1` (stereo not shown), half-maximal inhibition (IC50) required 61.6 nM.

`CN(C)C(=O)[C@@H]1CC[C@@H](NC(=O)c2ccc3[nH]nc(-c4ccncc4)c3c2)CN1Cc1ccccc1` yielded an IC50 of 51.3 nM.

In turn, `CC(C)(C)OC(=O)N1CC[C@@H](c2ccccc2)[C@H](NC(=O)c2ccc3[nH]nc(-c4ccc5c(c4)CCO5)c3c2)C1` came in with an IC50 of 300 nM.

Turning to `O=C(NC1CCCCN(CCc2c(F)cccc2F)C1)c1ccc2[nH]nc(-c3ccncc3)c2c1` (stereo not shown), the IC50 worked out at 43.3 nM.

The compound `COC(=O)[C@@H]1CC[C@@H](NC(=O)c2ccc3[nH]nc(-c4ccncc4)c3c2)CN1Cc1c(F)cccc1OC` returned an IC50 of 40.5 nM.

`COc1cccc(F)c1CN1C2CCC(NC(=O)c3ccc4[nH]nc(-c5ccnc(C)c5)c4c3)C1CC2` (stereo not shown) displayed an IC50 of 20.4 nM.

Take `O=C(CN1CCCCC(NC(=O)c2ccc3[nH]nc(-c4ccncc4)c3c2)C1)c1ccccc1` (stereo not shown): the IC50 was determined as 34.8 nM.

As for `O=C(N[C@@H]1CC[C@@H](C(=O)NCc2ccccc2)NC1)c1ccc2[nH]nc(-c3ccncc3)c2c1`, the IC50 was determined as 120 nM.

Consider `COC(=O)[C@H]1CC[C@@H](NC(=O)c2ccc3[nH]nc(-c4ccncc4)c3c2)CN1Cc1ccccc1`, for which the IC50 was 133 nM.

`COc1cccc(F)c1CN1C[C@H](NC(=O)c2ccc3[nH]nc(-c4ccnc(C)c4)c3c2)CC[C@H]1C(=O)N1CCC(O)CC1` [N-{(3R,6S)-1-(2-fluoro-6-methoxybenzyl)-6-[(4-hydroxypiperidin-1-yl)carbonyl]piperidin-3-yl}-3-(2-methylpyridin-4-yl)-1H-indazole-5-carboxamide] returned an IC50 of 14.6 nM.

Regarding `COc1cccc(F)c1CN1CCC(F)C(NC(=O)c2ccc3[nH]nc(-c4ccc5nccn5c4)c3c2)C1` (stereo not shown), the IC50 turned out to be 16.3 nM.

On to `O=C(NC1CCCCN(Cc2ccccc2)C1)c1ccc2[nH]nc(-c3ccncc3)c2c1` (stereo not shown), for which the midpoint of inhibition, the IC50, lay at 249 nM.

For the compound `COc1cccc(F)c1CN1CCC[C@@H](NC(=O)c2ccc3[nH]nc(-c4ccc5ncsc5c4)c3c2)C1`, the IC50 was 28.2 nM.

With `Cc1cc(-c2n[nH]c3ccc(C(=O)N[C@@H]4CCCN(CC(F)(F)c5ccccc5)C4)cc23)ccn1`, the IC50 was determined as 76.5 nM.

Compound `Cc1cccc(C)c1CN1CC(NC(=O)c2ccc3[nH]nc(-c4ccncc4)c3c2)CC(F)(F)C1` (stereo not shown) registered an IC50 of 457 nM.

Compound `CN1C[C@H](Cc2c(F)cccc2F)C[C@H](NC(=O)c2ccc3[nH]nc(-c4ccn5ccnc5c4)c3c2)C1` came in with an IC50 of 1.59 nM.

Take `CC(C)Oc1ccc(-c2n[nH]c3ccc(C(=O)N[C@@H]4CNC[C@H](c5ccccc5)C4)cc23)cc1`: the IC50 amounted to 45.1 nM.

On to `COC(=O)[C@@H]1CC[C@@H](NC(=O)c2ccc3[nH]nc(-c4ccncc4)c3c2)CN1Cc1ccccc1`, for which inhibition was half-maximal at 40.7 nM (IC50).

In turn, `COc1cccc(F)c1CN1CCC(O)C(NC(=O)c2ccc3[nH]nc(-c4ccc5nccn5c4)c3c2)C1` (stereo not shown) yielded an IC50 of 42.1 nM.

`O=C(NC1CCCCN(CCc2cccc3ccccc23)C1)c1ccc2[nH]nc(-c3ccncc3)c2c1` (stereo not shown): it took 12.9 nM to reach half-maximal inhibition (IC50).

As for `O=C(NC12CC1CCN(Cc1c(F)cccc1F)C2)c1ccc2[nH]nc(-c3ccc4nccn4c3)c2c1` (stereo not shown), 136 nM corresponded to half-maximal inhibition (IC50).

`CCc1nnc2ccc(-c3n[nH]c4ccc(C(=O)N[C@@H]5CCCN(Cc6c(F)cccc6OC)C5)cc34)cn12`: half-maximal inhibition (IC50) was put at 70.9 nM.

Regarding `CC(C)Oc1ccc(-c2n[nH]c3ccc(C(=O)N[C@@H]4CN(C)CC[C@H]4c4ccccc4)cc23)cn1`, the IC50 came out at 300 nM.

Regarding `COc1cccc(F)c1CN1C[C@H](C)C[C@H](NC(=O)c2ccc3[nH]nc(-c4ccc5nsnc5c4)c3c2)C1`, half-maximal inhibition (IC50) required 73.6 nM.

Compound `COc1cccc(F)c1CN1CCC[C@@H](NC(=O)c2ccc3[nH]nc(-c4ccc5nonc5c4)c3c2)C1` registered an IC50 of 301 nM.

The compound `CN1CC(Cc2c(F)cccc2F)CC(NC(=O)c2ccc3[nH]nc(-c4ccc5nn(C)cc5c4)c3c2)C1` (stereo not shown) displayed an IC50 of 1.4 nM.

`O=C(NC1CCCCN(CCc2ccccc2F)C1)c1ccc2[nH]nc(-c3ccncc3)c2c1` (stereo not shown): half-maximal inhibition (IC50) was put at 5 nM.

`O=C(NC1CCCCN(CCc2cccc(F)c2)C1)c1ccc2[nH]nc(-c3ccncc3)c2c1` (stereo not shown) yielded an IC50 of 13.4 nM.

As for `O=C(N[C@@H]1CNCC[C@H]1c1ccccc1)c1ccc2[nH]nc(-c3ccc4[nH]c(=O)[nH]c4c3)c2c1`, the half-maximal inhibitory concentration (IC50) is 50.1 nM.

The compound `O=C(NC1CN(Cc2c(F)cccc2F)CC(F)(F)C1)c1ccc2[nH]nc(-c3ccncc3)c2c1` (stereo not shown) gave an IC50 of 241 nM.

In turn, `O=C(NC1CCCCN(CCc2ccccc2)C1)c1ccc2[nH]nc(-c3ccncc3)c2c1` (stereo not shown) showed an IC50 of 8.72 nM.

Compound `COc1cccc(F)c1CN1CC(NC(=O)c2ccc3[nH]nc(-c4ccncc4)c3c2)CC(F)(F)C1` (stereo not shown) yielded an IC50 of 17.4 nM.

In turn, `COc1cccc(F)c1CN1CCC[C@@H](NC(=O)c2ccc3[nH]nc(-c4ccn5ncnc5c4)c3c2)C1` had an IC50 of 68.9 nM.

`O=C(NC1CCCCN(CC2CCc3ccccc32)C1)c1ccc2[nH]nc(-c3ccncc3)c2c1` (stereo not shown) returned an IC50 of 85.4 nM.

As for `COc1cccc(F)c1CN1CCC(O[Si](C)(C)C(C)(C)C)C(NC(=O)c2ccc3[nH]nc(-c4ccc5nccn5c4)c3c2)C1` (stereo not shown), the IC50 turned out to be 318 nM.

As for `COc1cccc(F)c1CN1C[C@H](NC(=O)c2ccc3[nH]nc(-c4ccc5nccn5c4)c3c2)C[C@H](C(F)(F)F)C1` [drawing 377], the midpoint of inhibition, the IC50, lay at 4.46 nM.

`COc1cccc(F)c1CN1C[C@H](NC(=O)c2ccc3[nH]nc(-c4ccc5nccn5c4)c3c2)CCC1=O` yielded an IC50 of 69.2 nM.

For the compound `CCOC(=O)C1CCN(Cc2ccccc2)CC1NC(=O)c1ccc2[nH]nc(-c3ccncc3)c2c1` (stereo not shown), the midpoint of inhibition, the IC50, lay at 191 nM.
